Data from US12383539B2 (Cavion, Inc., priority 2018, dated 2025).

Assays:
Assay type in all cases: in vivo, human
[1] = Healthy volunteer PK studies PN001/PN002 with IR capsules
[2] = tested on: patients with essential tremor; assay: T-CALM: Patient Global Impression of Change (PGIC); conditions: for PGIC score, LS mean (SE) / PGIC score, LS mean difference from placebo (95% CI): ANCOVA
Source text: Treatment success as measured by PGIC was summarized using descriptive statistics.
The Patient Global Impression of Change (PGIC) will quantify a patient's impression of improvement or decline over time with respect to ET treatment (see, e.g., Guy, Assessment Manual for Psychopharmacology. Rockville, MD: Department of Health, Education, and Welfare Public Health Service Alcohol, Drug Abuse, and Mental Health Administration, 1976). The patient will use the PGIC scale to assess current health status versus initiation of treatment and calculate the difference.

[3] = tested on: patients with essential tremor; assay: T-CALM: Clinical Global Impression of Improvement (CGI-I)
Source text: The Clinical Global Impressions Scale (CGI) was developed for use in NIMH-sponsored clinical trials to provide a brief, stand-alone assessment of the clinician's view of a patient's global functioning before and after initiating a study medication (Guy (ed.), ECDEU Assessment Manual for Psychopharmacology. Rockville, MD: US Department of Health, Education, and Welfare Public Health Service Alcohol, Drug Abuse, and Mental Health Administration; 1976). The CGI is a summary measure that takes into account all available information, including knowledge of the patient's history, psychosocial circumstances, symptoms, behavior, and the impact of the symptoms on the patient's ability to function. The CGI has two forms—the CGI-Severity, which rates illness severity at baseline, and the CGI-Improvement, which rates change from baseline.
The CGI-I consists of a single 7-point rating of total improvement or change from baseline CGI-S, regardless of whether or not the change is due entirely to drug treatment.
Treatment success as measured by CGI-I was summarized using descriptive statistics.
The Clinical Global Impressions Scale (CGI) generates a clinician's perception of a patient's functioning prior to and after study medication (see, e.g., Guy, Assessment Manual for Psychopharmacology. Rockville, MD: Department of Health, Education, and Welfare Public Health Service Alcohol, Drug Abuse, and Mental Health Administration, 1976). The CGI overall score considers patient history, psychosocial situations, symptoms and behavior with respect to the ability to function. The CGI-Improvement (CGI-I) will involve a single 7-point rating of total improvement or change from baseline CGI-Severity (CGI-S).

[4] = Average of the single-dose studies (dose 16)

## CC(C)c1ccc(CC(=O)N[C@H](C)c2ccc(OCC(F)(F)F)cn2)cc1 [CX-8998]
[1]; [4]
  AUC0-24: 8.22 µM·h
  AUCinf: 13.2 µM·h
  Cmax: 1060 nM
[1]; PN001 Part 1, 16 mg, 1 dose
  AUC0-24: 8.52 µM·h
  AUCinf: 12.5 µM·h
[1]; PN001 Part 2, 18 mg, 1 dose
  AUC0-24: 9.93 µM·h
  AUCinf: 14.6 µM·h
[1]; PN001 Part 2, 18 mg, 1 dose, healthy volunteers
  Cmax: 1180 nM
[1]; PN002 Part 1, 18 mg, 1 dose
  AUC0-24: 9.44 µM·h
  AUCinf: 18.5 µM·h
[1]; PN002 Part 1, 18 mg, 1 dose, healthy volunteers
  Cmax: 1330 nM
[1]; PN002 Part 2, 12 mg, 1 dose
  AUC0-24: 4.99 µM·h
  AUCinf: 7.31 µM·h
[1]; PN002 Part 2, 12 mg, 1 dose, healthy volunteers
  Cmax: 798 nM
[1]; immediate release capsules, human subjects
  dose proportionality of plasma profiles: dose proportional in the 2-18 mg dose range
[2]; Day 15
  PGIC score 0-no change: subjects, number (%): 11 (28%)
  PGIC score 1-minimally improved: subjects, number (%): 17 (44%)
  PGIC score 2-much improved: subjects, number (%): 8 (21%)
  PGIC score 3-very much improved: subjects, number (%): 1 (3%)
  PGIC score (rescaled −3 to 3), Mean (SD): 1 (1.0)
  PGIC score (rescaled −3 to 3), Median (minimum, maximum): 1 (−2, 3)
  PGIC score −1-minimally worse: subjects, number (%): 1 (3%)
  PGIC score −2-much worse: subjects, number (%): 1 (3%)
  PGIC score −3-very much worse: subjects, number (%): 0
  PGIC score, LS mean (SE): 0.9 (0.17)
  PGIC score, LS mean difference from placebo (95% CI): 0.7 (0.2, 1.1)
[2]; Day 15, N = 39
  PGIC category 0 No change, number (%) of patients: 11 (28%)
  PGIC category 1 Minimally improved, number (%) of patients: 17 (44%)
  PGIC category 2 Much improved, number (%) of patients: 8 (21%)
  PGIC category 3 Very much improved, number (%) of patients: 1 (3%)
  PGIC category −1 Minimally worse, number (%) of patients: 1 (3%)
  PGIC category −2 Much worse, number (%) of patients: 1 (3%)
  PGIC category −3 Very much worse, number (%) of patients: 0
[2]; Day 15, total 39
  PGIC: No Change, number of subjects: 11
  PGIC: Worsened, number of subjects: 2
[2]; Day 28
  PGIC score 0-no change: subjects, number (%): 14 (36%)
  PGIC score 1-minimally improved: subjects, number (%): 10 (26%)
  PGIC score 2-much improved: subjects, number (%): 7 (18%)
  PGIC score 3-very much improved: subjects, number (%): 3 (8%)
  PGIC score (rescaled −3 to 3), Mean (SD): 1 (1.3)
  PGIC score (rescaled −3 to 3), Median (minimum, maximum): 1 (−3, 3)
  PGIC score −1-minimally worse: subjects, number (%): 1 (3%)
  PGIC score −2-much worse: subjects, number (%): 1 (3%)
  PGIC score −3-very much worse: subjects, number (%): 1 (3%)
  PGIC score, LS mean (SE): 0.8 (0.19)
  PGIC score, LS mean difference from placebo (95% CI): 0.4 (−0.1, 0.9)
[2]; Day 28, total 37
  PGIC: Improved, number of subjects: 20
  PGIC: No Change, number of subjects: 14
  PGIC: Worsened, number of subjects: 3
[2]; Day 28, N = 39
  PGIC category 0 No change, number (%) of patients: 14 (36%)
  PGIC category 1 Minimally improved, number (%) of patients: 10 (26%)
  PGIC category 2 Much improved, number (%) of patients: 7 (18%)
  PGIC category 3 Very much improved, number (%) of patients: 3 (8%)
  PGIC category −1 Minimally worse, number (%) of patients: 1 (3%)
  PGIC category −2 Much worse, number (%) of patients: 1 (3%)
  PGIC category −3 Very much worse, number (%) of patients: 1 (3%)
[3]; Day 15
  CGI-I score 0-no change: subjects, number (%): 14 (36%)
  CGI-I score 1-minimally improved: subjects, number (%): 19 (49%)
  CGI-I score 2-much improved: subjects, number (%): 6 (15%)
  CGI-I score 3-very much improved: subjects, number (%): 0
  CGI-I score −1-minimally worse: subjects, number (%): 0
  CGI-I score −2-much worse: subjects, number (%): 0
  CGI-I score −3-very much worse: subjects, number (%): 0
  responders: improvement by CGI-I, %: (64.1%)
[3]; Day 15, N = 39
  CGI-I category 0 No change, number (%) of patients: 14 (36%)
  CGI-I category 1 Minimally improved, number (%) of patients: 19 (49%)
